Columns and labels:
Type in all cases: ADME
Cytochrome P450 2C19 [1] = biological target: T1, Cytochrome P450 2C19 (Homo sapiens, UniProt P33261, P227L); assay: Activity of human recombinant CYP2C19.10 mutant expressed in Saccharomyces cerevisiae BJ5457 assessed as omeprazole 5'-hydroxylation per pmol protein at 100 uM after 60 mins; conditions: recombinant enzyme, 1 h
Cytochrome P450 2C19 [2] = biological target: T2, Cytochrome P450 2C19 (Homo sapiens, UniProt P33261, L17P); assay: Activity of human recombinant CYP2C19.14 mutant expressed in Saccharomyces cerevisiae BJ5457 assessed as omeprazole 5'-hydroxylation per pmol protein at 100 uM after 60 mins; conditions: recombinant enzyme, 1 h
Cytochrome P450 2C19 [3] = biological target: T3, Cytochrome P450 2C19 (Homo sapiens, UniProt P33261); assay: Activity of human recombinant CYP2C19.1A mutant expressed in Saccharomyces cerevisiae BJ5457 assessed asomeprazole 5'-hydroxylation after 60 mins; conditions: recombinant enzyme, 1 h
Cytochrome P450 2C19 [4] = biological target: T1, Cytochrome P450 2C19; assay: Activity of human recombinant CYP2C19.10 mutant expressed in Saccharomyces cerevisiae BJ5457 assessed asomeprazole 5'-hydroxylation after 60 mins; conditions: recombinant enzyme, 1 h
Cytochrome P450 2C19 [5] = biological target: T4, Cytochrome P450 2C19 (Homo sapiens, UniProt P33261, R410C); assay: Activity of human recombinant CYP2C19.13 mutant expressed in Saccharomyces cerevisiae BJ5457 assessed asomeprazole 5'-hydroxylation after 60 mins; conditions: recombinant enzyme, 1 h
[6] = biological target: CYP2C19.14 (CYP2C19 variant) (Homo sapiens, UniProt P33261, L17P); assay: Activity of human recombinant CYP2C19.14 mutant expressed in Saccharomyces cerevisiae BJ5457 assessed asomeprazole 5'-hydroxylation after 60 mins; conditions: probe omeprazole (5'-hydroxylation)
Cytochrome P450 2C19 [7] = biological target: Cytochrome P450 2C19 (Homo sapiens, UniProt P33261, I19L); assay: Activity of human recombinant CYP2C19.15 mutant expressed in Saccharomyces cerevisiae BJ5457 assessed asomeprazole 5'-hydroxylation after 60 mins; conditions: recombinant enzyme, 1 h
[8] = biological target: CYP2C19.19 (CYP2C19 variant) (Homo sapiens, UniProt P33261, S51G); assay: Activity of human recombinant CYP2C19.19 mutant expressed in Saccharomyces cerevisiae BJ5457 assessed asomeprazole 5'-hydroxylation after 60 mins; conditions: probe omeprazole (5'-hydroxylation)
Cytochrome P450 2C19 [9] = biological target: Cytochrome P450 2C19 (Homo sapiens, UniProt P33261, D360N); assay: Activity of human recombinant CYP2C19 D360N mutant expressed in Saccharomyces cerevisiae BJ5457 assessed asomeprazole 5'-hydroxylation after 60 mins; conditions: recombinant enzyme, 1 h
Cytochrome P450 2C19 [10] = biological target: T1, Cytochrome P450 2C19; assay: Activity of human recombinant CYP2C19.10 mutant expressed in Saccharomyces cerevisiae BJ5457 assessed asomeprazole 5'-hydroxylation per pmol protein after 60 mins; conditions: recombinant enzyme, 1 h
Cytochrome P450 2C19 [11] = biological target: Cytochrome P450 2C19 (Homo sapiens, UniProt P33261, R150H); assay: Activity of human recombinant CYP2C19.11 mutant expressed in Saccharomyces cerevisiae BJ5457 assessed asomeprazole 5'-hydroxylation per pmol protein after 60 mins; conditions: recombinant enzyme, 1 h
Cytochrome P450 2C19 [12] = biological target: T4, Cytochrome P450 2C19; assay: Activity of human recombinant CYP2C19.13 mutant expressed in Saccharomyces cerevisiae BJ5457 assessed asomeprazole 5'-hydroxylation per pmol protein after 60 mins; conditions: recombinant enzyme, 1 h
Cytochrome P450 2C19 [13] = biological target: T3, Cytochrome P450 2C19; assay: Activity of human recombinant CYP2C19.1B mutant expressed in Saccharomyces cerevisiae BJ5457 assessed as omeprazole 5'-hydroxylation per pmol protein at 5 uM after 60 mins; conditions: recombinant enzyme, 1 h
Cytochrome P450 2C19 [14] = biological target: Cytochrome P450 2C19 (Homo sapiens, UniProt P33261, R433W); assay: Activity of human recombinant CYP2C19.5B mutant expressed in Saccharomyces cerevisiae BJ5457 assessed as omeprazole 5'-hydroxylation per pmol protein at 5 uM after 60 mins; conditions: recombinant enzyme, 1 h
Cytochrome P450 2C19 [15] = biological target: T5, Cytochrome P450 2C19 (Homo sapiens, UniProt P33261, V331I/R442C); assay: Activity of human recombinant CYP2C19.16 mutant expressed in Saccharomyces cerevisiae BJ5457 assessed as omeprazole 5'-hydroxylation per pmol protein at 5 uM after 60 mins; conditions: recombinant enzyme, 1 h
Cytochrome P450 2C19 [16] = biological target: Cytochrome P450 2C19 (Homo sapiens, UniProt P33261, S51G); assay: Activity of human recombinant CYP2C19.19 mutant expressed in Saccharomyces cerevisiae BJ5457 assessed as omeprazole 5'-hydroxylation per pmol protein at 5 uM after 60 mins; conditions: recombinant enzyme, 1 h
Cytochrome P450 2C19 [17] = biological target: T6, Cytochrome P450 2C19 (Homo sapiens, UniProt P33261, A161P); assay: Activity of human recombinant CYP2C19 A161P mutant expressed in Saccharomyces cerevisiae BJ5457 assessed as omeprazole 5'-hydroxylation per pmol protein at 5 uM after 60 mins; conditions: recombinant enzyme, 1 h
Cytochrome P450 2C19 [18] = biological target: Cytochrome P450 2C19 (Homo sapiens, UniProt P33261, M74T); assay: Activity of human recombinant CYP2C19 M74T mutant expressed in Saccharomyces cerevisiae BJ5457 assessed as omeprazole 5'-hydroxylation per pmol protein at 5 uM after 60 mins; conditions: recombinant enzyme, 1 h
Cytochrome P450 2C19 [19] = biological target: T7, Cytochrome P450 2C19 (Homo sapiens, UniProt P33261, E122A); assay: Activity of human recombinant CYP2C19 E122A mutant expressed in Saccharomyces cerevisiae BJ5457 assessed as omeprazole 5'-hydroxylation per pmol protein at 5 uM after 60 mins; conditions: recombinant enzyme, 1 h
Cytochrome P450 2C19 [20] = biological target: Cytochrome P450 2C19 (Homo sapiens, UniProt P33261, W212C); assay: Activity of human recombinant CYP2C19 W212C mutant expressed in Saccharomyces cerevisiae BJ5457 assessed as omeprazole 5'-hydroxylation per pmol protein at 5 uM after 60 mins; conditions: recombinant enzyme, 1 h
Cytochrome P450 2C19 [21] = biological target: T2, Cytochrome P450 2C19; assay: Activity of human recombinant CYP2C19.14 mutant expressed in Saccharomyces cerevisiae BJ5457 assessed asomeprazole 5'-hydroxylation per pmol protein after 60 mins; conditions: recombinant enzyme, 1 h
Cytochrome P450 2C19 [22] = biological target: T5, Cytochrome P450 2C19; assay: Activity of human recombinant CYP2C19.16 mutant expressed in Saccharomyces cerevisiae BJ5457 assessed asomeprazole 5'-hydroxylation per pmol protein after 60 mins; conditions: recombinant enzyme, 1 h
Cytochrome P450 2C19 [23] = biological target: Cytochrome P450 2C19 (Homo sapiens, UniProt P33261, R329H); assay: Activity of human recombinant CYP2C19.18 mutant expressed in Saccharomyces cerevisiae BJ5457 assessed asomeprazole 5'-hydroxylation per pmol protein after 60 mins; conditions: recombinant enzyme, 1 h
Cytochrome P450 2C19 [24] = biological target: T7, Cytochrome P450 2C19; assay: Activity of human recombinant CYP2C19 E122A mutant expressed in Saccharomyces cerevisiae BJ5457 assessed asomeprazole 5'-hydroxylation per pmol protein after 60 mins; conditions: recombinant enzyme, 1 h
Cytochrome P450 2C19 [25] = biological target: T3, Cytochrome P450 2C19; assay: Activity of human recombinant CYP2C19.1A mutant expressed in Saccharomyces cerevisiae BJ5457 assessed as intrinisic clearance foromeprazole 5'-hydroxylation per pmol protein after 60 mins; conditions: recombinant enzyme, 1 h
Cytochrome P450 2C19 [26] = biological target: T3, Cytochrome P450 2C19; assay: Activity of human recombinant CYP2C19.1B mutant expressed in Saccharomyces cerevisiae BJ5457 assessed as intrinisic clearance foromeprazole 5'-hydroxylation per pmol protein after 60 mins; conditions: recombinant enzyme, 1 h
Cytochrome P450 2C19 [27] = biological target: Cytochrome P450 2C19 (Homo sapiens, UniProt P33261, R144H); assay: Activity of human recombinant CYP2C19.9 mutant expressed in Saccharomyces cerevisiae BJ5457 assessed as intrinisic clearance foromeprazole 5'-hydroxylation per pmol protein after 60 mins; conditions: recombinant enzyme, 1 h
Cytochrome P450 2C19 [28] = biological target: T1, Cytochrome P450 2C19; assay: Activity of human recombinant CYP2C19.10 mutant expressed in Saccharomyces cerevisiae BJ5457 assessed as intrinisic clearance foromeprazole 5'-hydroxylation per pmol protein after 60 mins; conditions: recombinant enzyme, 1 h
Cytochrome P450 2C19 [29] = biological target: T2, Cytochrome P450 2C19; assay: Activity of human recombinant CYP2C19.14 mutant expressed in Saccharomyces cerevisiae BJ5457 assessed as intrinisic clearance foromeprazole 5'-hydroxylation per pmol protein after 60 mins; conditions: recombinant enzyme, 1 h
Cytochrome P450 2C19 [30] = biological target: T6, Cytochrome P450 2C19; assay: Activity of human recombinant CYP2C19 A161P mutant expressed in Saccharomyces cerevisiae BJ5457 assessed as intrinisic clearance foromeprazole 5'-hydroxylation per pmol protein after 60 mins; conditions: recombinant enzyme, 1 h

Drug metabolism (Cytochrome P450 2C19 [1]): 5 pmol/min
Drug metabolism (Cytochrome P450 2C19 [2]): 8.25 pmol/min
Km (Cytochrome P450 2C19 [3]): 5.42 µM
Km (Cytochrome P450 2C19 [4]): 10.6 µM
Km (Cytochrome P450 2C19 [5]): 4.87 µM
Km at 1 h [6]: 4.3 µM
Km (Cytochrome P450 2C19 [7]): 6.78 µM
Km at 1 h [8]: 14.5 µM
Km (Cytochrome P450 2C19 [9]): 7.81 µM
Vmax (Cytochrome P450 2C19 [10]): 5.35 pmol/min
Vmax (Cytochrome P450 2C19 [11]): 8.34 pmol/min
Vmax (Cytochrome P450 2C19 [12]): 7.83 pmol/min
Drug metabolism (Cytochrome P450 2C19 [13]): 2.73 pmol/min
Drug metabolism (Cytochrome P450 2C19 [14]): metabolite_not_detected
Drug metabolism (Cytochrome P450 2C19 [15]): 0.65 pmol/min
Drug metabolism (Cytochrome P450 2C19 [16]): 2.82 pmol/min
Drug metabolism (Cytochrome P450 2C19 [17]): 0.65 pmol/min
Drug metabolism (Cytochrome P450 2C19 [18]): 2.24 pmol/min
Drug metabolism (Cytochrome P450 2C19 [19]): 1.58 pmol/min
Drug metabolism (Cytochrome P450 2C19 [20]): 0.58 pmol/min
Vmax (Cytochrome P450 2C19 [21]): 8.05 pmol/min
Vmax (Cytochrome P450 2C19 [22]): 1.68 pmol/min
Vmax (Cytochrome P450 2C19 [23]): 7.77 pmol/min
Vmax (Cytochrome P450 2C19 [24]): 4.89 pmol/min
CL (Cytochrome P450 2C19 [25]): 1.49 µL/min
CL (Cytochrome P450 2C19 [26]): 1.24 µL/min
CL (Cytochrome P450 2C19 [27]): 0.62 µL/min
CL (Cytochrome P450 2C19 [28]): 0.5 µL/min
CL (Cytochrome P450 2C19 [29]): 1.91 µL/min
CL (Cytochrome P450 2C19 [30]): 0.24 µL/min
Structure (SMILES): COc1ccc2[nH]c([S+]([O-])Cc3ncc(C)c(OC)c3C)nc2c1 (stereo not given) [OMEPRAZOLE]

Source: ChEMBL document CHEMBL3526057 (Drug Metab Dispos, 2011)
